Assay results reported in patent US20110021631A1, “Method of preparing stabilized pharmaceutical compositions comprising active ingredients susceptible to conversion to alternate polymorph forms” (LEK PHARMACEUTICALS D.D., priority 2004, published 2011).
“Also recorded” adds a separate entry of the source.

Assays:
[1] = forms as named in WO 01/43723; cited from earlier work
[2] = Polymorph analysis by X-ray powder diffraction (XRPD) after wet granulation / mixing of pravastatin sodium form LEK; type: physicochemical
Protocol: References to 2Θ values are to those measured using CuKα radiation. Samples are measured on apparatus Siemens D-5000 by reflex technique at two conditions: • a. Samples with high amount of pravastatin sodium (more than 30%): CuKα radiation, range from 2° to 37° 2Θ, step 0.04° 2Θ, integration time 1 second, slots V20 and 0.6 mm. • b. Samples with low amount of pravastatin sodium (less than 30%): CuKα radiation, range from 3° to 12° 2Θ, step 0.04° 2Θ, integration time 15 second, slots V20 and 0.6 mm.

SMILES | polymorph conversion by treating with alcohol [1] | conversion on granulation with granulating liquid comprising a binder (PVP) ([2]; PVP in ethanol, in some experiments) | conversion to another polymorph form on granulation with alcohol alone ([2]; alcohol (absolute ethanol or aqueous ethanol) as granulating liquid, absence of other ingredients) | precrystallization of dry mixture ([2]; dry mixture of pravastatin sodium and microcrystalline cellulose, 2 hours at 60° C.) | stability of Lek form in wet granulation ([2]; mass ratio pravastatin sodium to microcrystalline cellulose higher or equal to 1:1 and pravastatin sodium to ethanol higher or equal to 1:1, preferably 1:0.5) | precrystallization in wet granulation ([2]; pravastatin sodium:microcrystalline cellulose = 1:0.5, pravastatin sodium and ethanol 1:0.4) | polymorph form in the presence of a high amount of microcrystalline cellulose and granulating liquid ([2]; wet granulation with ethanol)
CC[C@H](C)C(=O)O[C@H]1C[C@H](O)C=C2C=C[C@H](C)[C@H](CC[C@@H](O)C[C@@H](O)CC(=O)O)[C@H]21 [pravastatin sodium form D, pravastatin sodium] | convert to forms A, H, H1, I, J, K | – | – | – | – | – | –
CC[C@H](C)C(=O)O[C@H]1C[C@H](O)C=C2C=C[C@H](C)[C@H](CC[C@@H](O)C[C@@H](O)CC(=O)O)[C@H]21 [pravastatin sodium] | – | partial conversion | does not convert to any other polymorph form; also recorded: does not cause the precrystallization | does not cause any precrystallization | stable | no precrystallization occurs | precrystallizes to form D
